One compound from PMC8095115, “Dual regulation of TRPV1 channels by phosphatidylinositol via functionally distinct binding sites” (The Journal of Biological Chemistry, 2021) can be followed below.

The target of test [1] is TRPV1 (Rattus norvegicus, UniProt O35433). Description: excised inside-out patch clamp, Xenopus oocytes; partial inhibition with PtdIns([…])P2, partial activation without it. The following applies: read-out: % inhibition at 50 μM. The class given is cell-based.
Test [2] deals with TRPV1 (Rattus norvegicus, UniProt O35433, D509A). Description: excised inside-out patch clamp, Xenopus oocytes. It is filed as cell-based.
Sequence of TRPV1 (Rattus norvegicus, UniProt O35433, D509A) (O35433 whole entry D509A): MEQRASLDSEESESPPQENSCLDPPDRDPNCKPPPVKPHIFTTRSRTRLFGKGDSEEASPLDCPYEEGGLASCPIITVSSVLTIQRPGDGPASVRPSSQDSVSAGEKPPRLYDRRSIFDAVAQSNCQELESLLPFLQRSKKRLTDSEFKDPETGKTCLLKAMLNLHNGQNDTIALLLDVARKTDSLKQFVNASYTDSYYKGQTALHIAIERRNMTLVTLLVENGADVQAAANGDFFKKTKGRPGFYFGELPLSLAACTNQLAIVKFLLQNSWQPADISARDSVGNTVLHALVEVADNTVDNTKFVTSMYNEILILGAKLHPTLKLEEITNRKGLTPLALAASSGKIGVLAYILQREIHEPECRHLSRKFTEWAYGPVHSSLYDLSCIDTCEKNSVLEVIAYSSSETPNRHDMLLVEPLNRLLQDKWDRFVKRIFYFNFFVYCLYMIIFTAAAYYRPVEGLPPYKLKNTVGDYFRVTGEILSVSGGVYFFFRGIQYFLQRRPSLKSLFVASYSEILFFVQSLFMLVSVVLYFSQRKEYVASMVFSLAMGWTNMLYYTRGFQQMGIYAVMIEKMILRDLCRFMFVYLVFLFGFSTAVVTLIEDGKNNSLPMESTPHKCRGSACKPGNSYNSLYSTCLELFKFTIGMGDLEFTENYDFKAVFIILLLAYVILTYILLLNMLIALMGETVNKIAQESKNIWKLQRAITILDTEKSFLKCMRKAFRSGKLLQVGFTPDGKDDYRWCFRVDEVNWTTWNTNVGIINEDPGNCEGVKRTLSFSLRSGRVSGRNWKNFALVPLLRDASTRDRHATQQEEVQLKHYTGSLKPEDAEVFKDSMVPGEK

Sequence of TRPV1 (Rattus norvegicus, UniProt O35433) (O35433 whole entry): as the sequence (O35433 whole entry D509A) above, with A509D counted along it

`CCCCCCCC(=O)OC[C@H](COP(=O)(O)O[C@@H]1[C@H](O)[C@H](O)[C@@H](O)[C@H](O)[C@H]1O)OC(=O)CCCCCCC` [diC8 PtdIns]: the inhibition at 50 µM on TRPV1 [1] is around 50%. Further, the “excised inside-out patch clamp, Xenopus oocytes” value on TRPV1 [2] is on record as “The D509A mutant on the other hand was clearly inhibited by PtdIns”.
